Experimental data taken from patent US20190381500A1, “CELL CONTAINED CONTAINER AND CELL CONTAINED CONTAINER PRODUCING METHOD, AND CELL CHIP” (priority 2018, published 2019).

Experiments:
[1] = tested on: nerve cells C and nerve cells D; type: cell-based, human; details: 100, 160, 220 micromoles; 20 hours; FIG. 24
Experimental: In the same manner as in the evaluation of the cell survival rate, the N9 culture medium to which zinc chloride was added as described above was added, and the container was left to stand still overnight (for 20 hours) in a CO2 incubator at 37 degrees C.
In order to evaluate the influence of zinc chloride on cell membrane damage, only the culture medium was recovered with a micropipette and put in a 96-well cell contained container, a LDH assay reagent (product name: CYTOTOXICITY DETECTION KIT, available from Roche) was further added to each, and the resultant was allowed to undergo reaction at room temperature (23 degrees C.) for 5 minutes. Subsequently, absorbances at 492 nm, and as a reference value, at 620 nm were measured with a plate reader, to evaluate “cell membrane damage rate”. The results are plotted in FIG. 24.

[2] = tested on: nerve cells C and nerve cells D; type: cell-based, human; details: 100, 160, 220 micromoles; 20 hours; FIG. 23
Experimental: N9 culture media (available from Elixirgen Scientific, LLC) to which zinc chloride as a test substance at four concentration conditions of 0 micromoles, 100 micromoles, 160 micromoles, and 220 micromoles was added respectively were added in the evaluation container of Production example 2 in an amount of 100 microliters with a micropipette, and the container was left to stand still overnight (for 20 hours) in a CO2 incubator at 37 degrees C.
Next, in order to evaluate the influence of zinc chloride on the cell survival rate, a WST-1 reagent (product name: PREMIX WST-1 CELL PROLIFERATION ASSAY SYSTEM, available from Takara Bio Inc.) was added in an amount of 10 microliters per well (concave), and left to stand still for 1 hour in an CO2 incubator at 37 degrees C. to be allowed to undergo reaction. Subsequently, absorbances at 450 nm, and as a reference value, at 570 nm were measured with a plate reader (instrument name: CYTATION 5, available from Bio Tek Instruments Inc.), to evaluate “cell survival rate”. The results are plotted in FIG. 23.

[3] = tested on: IL-8 production of nerve cells C and nerve cells D; test: Cytotoxicity evaluation: inflammatory substance production (IL-8 ELISA); type: cell-based, human; details: 100, 160, 220 micromoles; 20 hours; FIG. 25
Experimental: In the same manner as in the evaluation of the cell survival rate, a N9 culture medium (available from Elixirgen Scientific, LLC) to which zinc chloride was added was added, and the container was left to stand still overnight (for 20 hours) in a CO2 incubator at 37 degrees C.
In order to evaluate the influence of zinc chloride on inflammatory substance production, only the culture medium was recovered with a micropipette. IL-8 production was measured by ELISA method using a protein measurement kit (product name: HUMAN IL-8 ELISA READY-SET-GO! (registered trademark), available from Affymetrix), and absorbances at 450 nm, and as a reference value, at 570 nm were measured with a plate reader. The results are plotted in FIG. 25.

[4] = tested on: nerve cells C and nerve cells D (differentiated from human induced iPS cells); test: Drug efficacy screening (Hoechst 33342 / PI / Calcein AM staining, fluorescence microscope cell counting) in cell contained container 2; type: cell-based; details: for Living cells / Dead cells: next day after addition
Experimental: The amount of the drug solution used was from 50 μL through 5,000 μL.
On the next day after the drug solution was added, the culture medium in each concave of the cell contained container was removed, and the concaves were washed with Hank's balanced salt solution (HBSS, available from Thermo Fisher Scientific Inc.) (200 microliters) at room temperature. After washing, HOECHST 33342 (available from Thermo Fisher Scientific Inc.), PI (Propidium Iodide, available from Cosmo Bio Co., Ltd.), and CALSEIN AM (available from Takara Bio Inc.) were each diluted 1,000-fold with HBSS, to prepare a stain mixture liquid, and the prepared stain mixture liquid was added in an amount of 200 microliters each. The cell contained container was then left to stand still in a 5% CO2 incubator for 20 minutes.
A fluorescence microscope image of the cell stained container after staining was completed was captured with a fluorescence microscope. The obtained fluorescence microscope image was processed with image processing software IMAGE J, to calculate the number of cells and the number of dead cells.

[5] = drug concentration 0.1 micromoles
[6] = drug concentration 0.3 micromoles
[7] = drug concentration 1.0 micromoles
[8] = drug concentration 3.0 micromoles
[9] = drug concentration 10 micromoles

Row | SMILES | cell membrane damage rate, nerve cells C compared with nerve cells D [1] | cell survival rate, nerve cells C compared with nerve cells D [2] | inflammatory substance production (IL-8), nerve cells C compared with nerve cells D [3] | Drug efficacy rate (living cells/dead cells) [4, 5] [%] | Living cells [4, 5] [cell] | Drug efficacy rate (living cells/dead cells) [4, 6] [%] | Dead cells [4, 6] [cell] | Living cells [4, 6] [cell] | Drug efficacy rate (living cells/dead cells) [4, 7] [%] | Living cells [4, 7] [cell] | Drug efficacy rate (living cells/dead cells) [4, 8] [%] | Dead cells [4, 8] [cell] | Living cells [4, 8] [cell] | Drug efficacy rate (living cells/dead cells) [4, 9] [%] | Dead cells [4, 9] [cell] | Living cells [4, 9] [cell]
1 | [Cl-].[Cl-].[Zn+2] [zinc chloride] | almost the same toxic response tendency | almost the same toxic response tendency | almost the same toxic response tendency | – | – | – | – | – | – | – | – | – | – | – | – | –
2 | CN[C@@H]1C[C@H]2O[C@@](C)([C@@H]1OC)n1c3ccccc3c3c4c(c5c6ccccc6n2c5c31)C(=O)NC4 [STAUROSPORINE] | – | – | – | 70 | 271 | 57 | 202 | 270 | 54 | 268 | 42 | 270 | 197 | 2 | 474 | 11
